Data from patent publication US20050003008A1, “Method of in vivo drug targeting to solid tumors via acoustically triggered drug delivery in polymeric micelles” (priority 1997, published 2005).
Values after ≈ are worked out from the molar mass of the structure shown. One block for each molecule: values may come before it.

Legend:
[1] = Effects of PLURONIC micelles and ultrasound on drug uptake and cytotoxicity, other drugs; type: cell-based
Text: It is important to note that the effects of PLURONIC micelles and ultrasound on drug uptake and cytotoxicity described above for DOX were also observed for another anthracycline drug, Ruboxyl. […] This implies that the new modality of drug delivery described here will have general applicability to a wide variety of drugs and drug delivery systems.

[2] = tested on: leukosis, La, P-388, and L-1210; solid tumors; details: P-388, L-1210 in mice, solid tumors in rats; cited from earlier work
[3] = Drug partitioning between PLURONIC micelles and polystyrene latex particles; type: physicochemical
Method: To study solute release from PLURONIC micelles, the partitioning of the solute between the micelles and the surface of polystyrene latex particles was investigated. A spin probe, DSTA, or the drug, ruboxyl, was solubilized in PLURONIC P-105 solutions of various concentrations. A suspension of polystyrene latex particles (average diameter 0.9 μm, 50 μl/ml) was incubated with 1 ml of DSTA or ruboxyl solution in PLURONIC P-105, and depletion of the probe in the supernatant was measured by the EPR (for DSTA) or fluorescence (for ruboxyl) technique upon polystyrene particle separation.
An important question pertinent to this research was how tightly the solubilized drug was associated with PLURONIC micelles. To investigate this problem, ruboxyl adsorption on polystyrene latex particles was measured from molecular solutions of ruboxyl in PBS and from micellar PLURONIC solutions. Ruboxyl readily adsorbs onto polystyrene surfaces. About 90% of the drug is transferred onto polystyrene surface from ruboxyl solutions in PBS. PLURONIC micelles, however, compete for ruboxyl with polystyrene surfaces; only about 40% of ruboxyl solubilized in PLURONIC micelles (20 wt % solutions of PLURONIC P-105) is transferred onto the polystyrene surface, the remainder being retained within the PLURONIC micelles.

[4] = tested on: drug-sensitive ovarian carcinoma A2780 cells; assay: Growth inhibition of drug-sensitive ovarian carcinoma cells (IC75); type: cell-based
Method: (§1) It should be noted that because of the cytostatic action of micelles, the inhibitory concentration IC50 values for drugs become meaningless; for example, upon 3-hour incubation with a drug-free 10% P-105 micelles followed by three days culturing in a PLURONIC-free RPMI 1640 medium, the growth inhibition of both sensitive and resistant cells exceeded 50%. […] For cases like this it would be more informative to compare, e.g., IC75 values.

[5] = tested on: MDR ovarian carcinoma A2780/ADR cells; assay: Growth inhibition / cell kill of MDR ovarian carcinoma cells with Pluronic and ultrasound; type: cell-based; details: for IC75: A2780/ADR
Method: as §1
As an example, when the MDR cell were incubated with drug-free 10% PLURONIC micelles for three hours, upon which they were sonicated for 10 minutes by 69-kHz ultrasound at 3.2 W/cm^2 and cultured for 72 hours, the growth of the MDR cell dropped to forty percent of the unsonicated non-incubated control.
For the MDR cells, PLURONIC and ultrasound effects are especially important. At the absence of micelles, only about forty percent of the MDR cells are killed at DOX or Rb concentrations as high as 100 μg/ml. However, when the MDR cells were incubated with 5 μg/ml DOX for three hours in the presence of a unimeric Pluronic solution followed by a 10-minute sonication by 69-kHz ultrasound at 3.2 W/cm^2, sixty six percent of the cells died upon subsequent cell culturing vs. fifty three percent without ultrasound; only fifteen percent of the MDR cells die upon incubation with 5 μg/ml DOX without Pluronic and ultrasound treatment.
Ultrasound-induced increased intracellular uptake was accompanied by a dramatic sensitization of the MDR cells to the action of DOX (FIG. 10). […] Even without ultrasound, IC50 of DOX in the MDR ovarian carcinoma cells dropped 50-fold in the presence of PLURONIC unimers and micelles.

[6] = tested on: breast and colon carcinomas and bone sarcoma; details: cited from earlier work
[7] = tested on: DNA; assay: Drug intercalation into DNA (fluorescence drop); type: binding; details: drug introduced from micellar solution
Text: Ruboxyl and doxorubicin encapsulation in PLURONIC micelles restricted not only drug interaction with the cells, but also drug interaction with cell components, e.g. DNA.

[8] = tested on: HL-60 cells; assay: Intracellular drug uptake by HL-60 cells (lysate fluorescence); type: cell-based
Method: Intracellular uptake of doxorubicin and ruboxyl was measured using a fluorescence technique wherein compounds were excited at 488 nm and technical emission spectra were recorded at 510-700 nm. Two sets of samples were studied, incubated, and sonicated. Ultrasound was generated by a Sonicor SC100 sonication bath operating at 70 kHz and 37° C. Power density was controlled by adjusting the input voltage and was measured with a hydrophone.
For the first set of samples, the cells were incubated at 37° C. with doxorubicin or ruboxyl, which were either dissolved in the RPMI medium or PBS, or the drugs were solubilized in PLURONIC P-105 solutions of various concentrations. For the second set of samples, the cells were sonicated by 70 kHz ultrasound at 37° C. to assess the effect of ultrasound on the drug uptake from molecular and micellar solutions. After being incubated/sonicated with and without the drug, the cells were centrifuged, washed twice with cold PBS, resuspended in PBS, and the fluorescence spectra of cell suspensions were recorded. The fluorescence intensity of the untreated cells was subtracted from that of the drug-treated cells. Because drug fluorescence within the cells was substantially quenched, drug uptake was quantified by lysing the cells by incubating them with 1 wt % SDS solution for 1-2 hours at 37° C. This process transferred the drug from cellular components to SDS micelles. […] Upon the completion of cell lysis, fluorescence spectra of the lysates were recorded. To quantify the concentration of lysed cells, cell lysates were filtered through 0.2 μm filters, and their optical densities were measured by protein absorbance at 280 nm (OD 280 nm). […] The fluorescence intensity of lysates ws normalized by OD 280 nm.

[9] = Ultrasound-triggered drug release from PLURONIC P-105 micelles; type: physicochemical
Text: The measurements of the degree of drug release are based on the decrease of DOX fluorescence intensity when DOX is transferred from the hydrophobic environment of micelle cores to the aqueous environment. An argon-ion laser beam of 488 nm was directed to a drug-containing cuvette to excite fluorescence. The emissions were collected using a fiber optic collector and filtered to remove the excitation wavelength. The emissions were quantified using a photodetector, digitized with a 12-bit A/D converter, and stored in a Macintosh computer for further analysis.
Digitized fluorescence intensity data were analyzed to calculate the percent of the drug release from micelles. A fluorescence intensity of a 10 μg/ml DOX solution in PBS (IPBS) was measured first; the PBS solution was then carefully sucked out of the cuvette and replaced with a 10 μg/ml DOX solution in 10% PLURONIC P-105 micelles. Fluorescence of this solution (Imic) was measured, and a difference Imic−IPBS was assumed to correspond to a […] drug release from micelles. Then, ultrasound was switched on, and DOX fluorescence under sonication (Ius) was recorded; if sonication induced partial drug release from micelles into the aqueous environment, Ius was lower than Imic; the “ultrasound on”-“ultrasound off” cycles were repeated several times to check reproducibility. The length of each ultrasound exposure cycle was 1 to 2 minutes. […] The degree of drug release (DDR) was calculated as follows: DDR={[Imic−Ius]/[Imic−IPBS]}×100

[10] = tested on: A2780 tumor; assay: In vivo DOX uptake by sonicated A2780 tumor
[11] = tested on: HL-60 cells; details: combination of micellar delivery and ultrasonication; cited from earlier work
[12] = tested on: MDR ovarian carcinoma A2780/ADR cells; assay: Growth inhibition / cell kill of MDR ovarian carcinoma cells with Pluronic and ultrasound; type: cell-based; details: 10-min sonication by 67-kHz ultrasound
[13] = tested on: ovarian carcinoma drug-sensitive A2780 cells; assay: Intracellular DOX uptake by A2780 cells under 1 MHz ultrasound (flow cytometry); type: cell-based
Method: Fluorescence histograms of the A2780 cells incubated or sonicated in the presence of DOX are shown. The initial concentration of cells ranged from 3×10^6 to 5×10^6 cells/ml as determined using a hemacytometer. After exposure to DOX (10 μg/ml to 50 μg/ml in various experiments) and ultrasound (15 to 30 s), cells were counted again to measure the degree of sonolysis, upon which they were centrifuged, washed with PBS, fixed with a 3% formalin or 2.5% glutaraldehide, and analyzed by flow cytometry. Fluorescence histograms were recorded with a FACScan flow cytometer (Beckton Dickinson) and analyzed using CellQuest software supplied by the manufacturer. A minimum of 10,000 events was analyzed to generate each histogram.
The experiments on the effect of ultrasound on the intracellular DOX uptake with and without micelles were always conducted in parallel, at the same day and using the same batch of the cells.

[14] = tested on: A2780 cells; assay: Survival of ovarian carcinoma-bearing mice; type: in vivo; details: DOX 3 mg/kg intraperitoneally in PLURONIC P-105 micelles, sonication one hour after injection
Method: A2780 cells (1×10^6) were inoculated intraperitoneally. DOX in PBS or PLURONIC P-105 micelles was injected intraperitoneally the next day after cell inoculation. Sonication of the abdominal region was performed one hour after DOX injection.

[15] = absence of micelles, drug concentration 100 μg/ml
[16] = PLURONIC concentration 0.1%, below CMC
[17] = drug sequestered in dense PLURONIC P-105 micelles vs free drug

SMILES: CC(=O)O[C@H]1C(=O)[C@@]2(C)[C@H]([C@H](OC(=O)c3ccccc3)[C@]3(O)C[C@H](OC(=O)[C@H](O)[C@@H](NC(=O)c4ccccc4)c4ccccc4)C(C)=C1C3(C)C)[C@]1(OC(C)=O)CO[C@@H]1C[C@@H]2O [taxol]
effects of PLURONIC micelles and ultrasound on drug uptake and cytotoxicity [1]: promising results

drug transferred onto polystyrene surface ([3]; from ruboxyl solutions in PBS): About 90% | drug transferred onto polystyrene surface ([3]; solubilized in PLURONIC micelles (20 wt % PLURONIC P-105)): about 40%
SMILES: COc1cccc2c1C(=O)c1c(O)c3c(c(O)c1C2=O)C[C@@](O)(/C(C)=N/N=C1CC(C)(C)N(O)C(C)(C)C1)C[C@@H]3O[C@H]1C[C@H](N)[C@H](O)[C@H](C)O1.Cl [Rb, ruboxyl]
anti-tumor activity [2]: high | IC75 ([4]; A2780, P-105 10% (micelles)): 0.9 µg/mL | IC75 ([4]; A2780, RPMI (no Pluronic)): 1.5 µg/mL | IC75 ([5]; P-105 10% (micelles)): 17 ± 3 µg/mL | IC75 ([5]; RPMI (no Pluronic)): >100 µg/mL | MDR cells killed [5, 15]: about forty | clinical efficacy ([6]; breast and colon carcinomas and bone sarcoma): effective | cardiotoxicity ([6]; clinical trials): reduced | effects of PLURONIC micelles and ultrasound on drug uptake and cytotoxicity [1]: also observed | drug-DNA interaction [7]: lower drug-DNA interaction | drug uptake by HL-60 cells [8, 16]: somewhat enhanced | drug uptake by HL-60 cells [8, 17]: substantial decrease

power density required for 10% DOX release ([9]; 1.0-MHz ultrasound): 7.2 W/cm^2 | power density required for 10% DOX release ([9]; 20-kHz ultrasound): 0.058 W/cm^2 | power density required for 10% DOX release ([9]; 67-kHz ultrasound): 2.8 W/cm^2 | DOX uptake by other organs under ultrasound ([10]; 3-MHz ultrasound): not affected
SMILES: COc1cccc2c1C(=O)c1c(O)c3c(c(O)c1C2=O)C[C@@](O)(C(=O)CO)C[C@@H]3O[C@H]1C[C@H](N)[C@H](O)[C@H](C)O1 [DOX, Doxorubicin]
DOX uptake by cells of the sonicated tumor ([10]; DOX 6 mg/kg intravenously, 1 MHz or 3 MHz ultrasound 1.7 W/cm2): dramatically enhanced | IC75 ([4]; A2780, P-105 0.1% (unimers)): 1.3 µg/mL (≈ 2.39 µM) | IC75 ([4]; A2780, P-105 10% (micelles)): 1.3 µg/mL (≈ 2.39 µM) | IC75 ([4]; A2780, RPMI (no Pluronic)): 1.3 µg/mL (≈ 2.39 µM) | MDR cells died ([5]; 5 μg/ml DOX three hours in unimeric Pluronic solution, 10-minute sonication 69-kHz 3.2 W/cm^2): sixty six | MDR cells died ([5]; 5 μg/ml DOX three hours in unimeric Pluronic solution, without ultrasound): fifty three | MDR cells died ([5]; 5 μg/ml DOX without Pluronic and ultrasound treatment): fifteen | IC75 ([5]; P-105 0.1% (unimers)): 12 ± 2 µg/mL (≈ 22.1 µM) | IC75 ([5]; P-105 10% (micelles)): 16 ± 2 µg/mL (≈ 29.4 µM) | IC75 ([5]; RPMI (no Pluronic)): >100 µg/mL | MDR cells killed ([5]; PLURONIC micelle and ultrasound, DOX concentration 0.78 μg/ml): 100% | MDR cells killed [5, 15]: about forty | fraction of MDR cells highly resistant to DOX ([5]; conventional medium, DOX 50 μg/ml): about 55% | fraction of MDR cells highly resistant to DOX ([5]; in the presence of PLURONIC micelles): completely eliminated | drop of IC50 of DOX ([5]; presence of PLURONIC unimers and micelles, without ultrasound): 50 fold | effective drug dose [11]: substantial decrease | drug-DNA interaction [7]: lower drug-DNA interaction | drug uptake by HL-60 cells [8, 16]: somewhat enhanced | drug uptake by HL-60 cells [8, 17]: substantial decrease | fraction of MDR cells highly resistant to DOX [12]: about 30% | DOX uptake, sonicated vs unsonicated cells ([13]; sonicated 15 s vs unsonicated incubated 30 min, same DOX concentration): significantly higher | intracellular uptake of DOX ([13]; sonication at 1 MHz, from PBS or RPMI 1640): substantially increased | life span vs conventional drug introduction [14]: much longer
